{"source": "ChEMBL document CHEMBL1126719", "about": "“The solution conformation of (D)Phe-Pro-containing peptides: implications on the activity of Ac-(D)Phe-Pro-boroArg-OH, a potent thrombin inhibitor” (J Med Chem, 1993)"}
{"target": "Prothrombin (Homo sapiens, UniProt P00734)", "experiment": "Inhibition constant for binding with thrombin was determined", "units": {"Ki": "nM"}}
{"compound": "CC(C)(C)OC(=O)N[C@H](Cc1ccccc1)C(=O)NCC(=O)NC(CCCN=C(N)N)B(O)O", "note": "(stereo not given in full)", "Ki": 0.4}
{"compound": "CC(C)(C)OC(=O)N[C@H](Cc1ccccc1)C(=O)N1CCC[C@H]1C(=O)NC(CCCN=C(N)N)B(O)O", "note": "(stereo not given in full)", "Ki": 0.004}
{"compound": "CC(=O)N[C@H](Cc1ccccc1)C(=O)NCC(=O)NC(CCCN=C(N)N)B(O)O", "note": "(stereo not given in full)", "Ki": 4.3}
{"compound": "CC(=O)N1CCC[C@H]1C(=O)NC(CCCN=C(N)N)B(O)O", "note": "(stereo not given in full)", "Ki": 3.3}
{"compound": "CC(=O)NCC(=O)NC(CCCN=C(N)N)B(O)O", "note": "(stereo not given)", "Ki": 26}
